According to paper PMC8053042 (Cell chemical biology, 2020):

Target: T1, Doublecortin-like kinase 1 (DCLK1) (Homo sapiens, UniProt O15075)
T1 sequence (O15075 390-647 limits assumed): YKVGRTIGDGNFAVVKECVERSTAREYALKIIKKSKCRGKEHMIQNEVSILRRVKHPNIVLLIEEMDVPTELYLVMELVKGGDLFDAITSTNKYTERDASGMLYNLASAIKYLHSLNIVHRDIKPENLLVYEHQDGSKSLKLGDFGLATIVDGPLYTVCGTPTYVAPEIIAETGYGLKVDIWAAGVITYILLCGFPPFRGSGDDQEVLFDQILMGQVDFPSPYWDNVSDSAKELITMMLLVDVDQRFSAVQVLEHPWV
Experiment: peptide substrate mobility shift kinase assay with purified DCLK1 WT
Format: biochemical

- IC50: 55 nM
Compound: COc1cc(N2CCN(C)CC2)ccc1Nc1ncc2c(n1)N(C)c1ccccc1C(=O)N2CC(F)(F)F [DCLK1-IN-1]
